According to patent US20080193428A1, “Composition and Method for Modulating and Maintaining Vaginal Bacterial Flora and Vaginal Acidity” (Shenzhen Phlora Biotechnology Limited, priority 2005, published 2008):

System: lactobacilli
Experiment: Inhibition of growth and acid-production of lactobacilli at different pH
Assay type: cell-based

benzoic acid [benzoic acid and/or its sodium salt]
inhibition effect on the growth and acid-production of lactobacilli (under a relatively high pH value (e.g., pH>4.6)): became weak | inhibition effect on the growth and acid-production of lactobacilli (under a relatively low pH value (e.g., pH<4.0)): relatively strong inhibition effect
